The nature of this data set: Acute cardiovascular toxicity in the rat, single i.v. dose, mortality. In kind it is in vivo. As to conditions: for Dead rats/Total N° of rats per group: observed up to 4 hours. How it is done: These two peptides were also tested for acute cardiovascular toxicity in the rat.
Dosages were calculated on the basis of the declared peptide content in each product, as specified below:
A single dose of HEXARELIN or GHRP-6 was administered to rats in different calendar dates in such a way that each group/dose should be treated in two subsequent days.
For each compound, appropriate amounts of solutions in 0.9% NaCl for injection were prepared just before treatment at the suitable concentrations. The solutions were sterilized by filtration (Millipore filter, pore size 0.22 μm). Owing to the type of the study (acute study) in which formulates were administered just after preparation, stability checks were not performed. Concentration checks were also not performed. The volume of solution injected was maintained constant at 1 ml/Kg.
The intravenous injections were done as a single dose in one vein of the tail with an appropriately gauged sterile, disposable, plastic syringe. The injection rate was about 0.1 ml/sec.
Periodical observations were made up to 4 hours after treatment. Abnormality and mortality were recorded. Body weight was recorded once during pre-trial and on the administration day to calculate the volumes to be injected.

Square brackets hold non-standard residues; d marks the D form. Peptide text beside a SMILES is read from it. dTrp(2-Me) = Cc1[nH]c2ccccc2c1C[C@@H](N)C(=O)O

Consider `Cc1[nH]c2ccccc2c1C[C@@H](NC(=O)[C@@H](N)Cc1cnc[nH]1)C(=O)N[C@@H](C)C(=O)N[C@@H](Cc1c[nH]c2ccccc12)C(=O)N[C@H](Cc1ccccc1)C(=O)N[C@@H](CCCCN)C(N)=O` [Example 4, His-D-2-methyl-Trp-Ala-Trp-D-Phe-Lys-NH2] (H-H[dTrp(2-Me)]AW[dF]K-NH2), for which the “Dead rats/Total N° of rats per group” value by setting is: (single i.v. dose 5.0 mg/kg) 0/6; (single i.v. dose 7.5 mg/kg) 1/6; (single i.v. dose 10 mg/kg) 2/6. Also, the “toxicity compared with GHRP-6” value (single i.v. dose, mortality) is listed as “less toxic than GHRP-6”.

Source of the values: US5635379A, “D-2-alkyl-tryptophan and peptides containing same” (Deghenghi; Romano, priority 1990, dated 1997).
